Activity calls are given as the source filed them. No cut-off for these calls is given here.
Assays:
[1] = target: T1, Neuraminidase (Influenza A virus, UniProt B4URF0); experiment: Inhibition of influenza A virus A/Vietnam/1194/2004 H5N1 neuraminidase using NA-STAR substrate after 15 mins incubation at room temperature by fluorescent assay
[2] = target: T1, Neuraminidase; experiment: Inhibition of influenza A virus A/WSN/1933 H1N1 neuraminidase using NA-STAR substrate after 15 mins incubation at room temperature by fluorescent assay
[3] = tested on: Influenza A virus; experiment: Antiviral activity against influenza A virus A/WSN/1933 H1N1 infected in MDCK cells assessed as reduction of infectious viral titer at 100 nM incubated for 1 hr under laminar flow hood light before infection measured after 3 days; format: functional, organism-based
[4] = tested on: Influenza A virus; experiment: Antiviral activity against influenza A virus A/WSN/1933 H1N1 infected in MDCK cells assessed as reduction of infectious viral titer at 500 nM incubated for 1 hr under laminar flow hood light before infection measured after 3 days; format: functional, organism-based
[5] = tested on: Influenza A virus; experiment: Antiviral activity against influenza A virus A/WSN/1933 H1N1 infected in MDCK cells after 3 days by plaque reduction assay; format: functional, organism-based; details: 72 h
[6] = tested on: Influenza A virus; experiment: Antiviral activity against influenza A virus A/WSN/1933 H1N1 infected in MDCK cells assessed as protection against virus-induced cytopathic effect after 48 hrs; format: functional, organism-based
[7] = tested on: Influenza A virus (A/Vietnam/1194/2004(H5N1)); experiment: Binding affinity to influenza A virus A/Vietnam/1194/2004 H5N1 hemagglutininin to alpha-2,3-sialic acid galactosyl oligomers
[8] = tested on: Influenza A virus; experiment: Antiviral activity against influenza A virus A/Vietnam/1194/2004 H5N1 infected in MDCK cells assessed as protection against virus-induced cytopathic effect after 48 hrs; format: functional, organism-based
[9] = tested on: Influenza A virus; experiment: Inhibition of influenza A virus A/WSN/1933 H1N1-induced hemagglutinination of chicken RBC; format: functional, organism-based
[10] = tested on: Influenza A virus; experiment: Ratio of EC50 for drug to EC50 for zanamivir against influenza A virus A/Vietnam/1194/2004 H5N1 by plaque reduction assay; format: functional
[11] = target: Neuraminidase (Influenza A virus) (UniProt B4URF0); experiment: Inhibition of influenza A virus A/Vietnam/1194/2004 H5N1 neuraminidase at 10 nM using NA-STAR substrate after 15 mins incubation at room temperature by fluorescent assay relative to control
Chain of Neuraminidase (Influenza A virus) (B4URF0 as listed by the source): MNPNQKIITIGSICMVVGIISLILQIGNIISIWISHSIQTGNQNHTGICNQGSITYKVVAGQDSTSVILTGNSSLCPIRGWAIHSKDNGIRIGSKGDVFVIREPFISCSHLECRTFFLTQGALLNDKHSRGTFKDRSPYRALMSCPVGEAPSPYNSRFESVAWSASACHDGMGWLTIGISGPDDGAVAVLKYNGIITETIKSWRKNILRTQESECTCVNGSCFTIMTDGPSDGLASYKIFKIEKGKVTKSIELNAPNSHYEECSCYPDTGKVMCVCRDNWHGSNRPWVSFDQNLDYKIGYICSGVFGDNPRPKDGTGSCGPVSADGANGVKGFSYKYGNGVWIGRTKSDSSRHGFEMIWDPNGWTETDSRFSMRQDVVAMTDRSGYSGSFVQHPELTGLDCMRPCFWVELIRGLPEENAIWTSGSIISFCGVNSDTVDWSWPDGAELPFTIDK

[12] = target: Neuraminidase (Influenza A virus) (UniProt B4URF0); experiment: Inhibition of influenza A virus A/WSN/1933 H1N1 neuraminidase at 40 nM using NA-STAR substrate after 15 mins incubation at room temperature by fluorescent assay relative to control
[13] = tested on: Influenza A virus; experiment: Antiviral activity against influenza A virus A/Vietnam/1194/2004 H5N1 infected in MDCK cells after 3 days by plaque reduction assay; format: functional, organism-based; details: 72 h
[14] = target: Neuraminidase (Influenza A virus) (UniProt B4URF0); experiment: Inhibition of influenza A virus A/Vietnam/1194/2004 H5N1 neuraminidase at 40 nM using NA-STAR substrate after 15 mins incubation at room temperature by fluorescent assay relative to control
[15] = target: Neuraminidase (Influenza A virus) (UniProt B4URF0); experiment: Inhibition of influenza A virus A/WSN/1933 H1N1 neuraminidase at 10 nM using NA-STAR substrate after 15 mins incubation at room temperature by fluorescent assay relative to control
[16] = tested on: Influenza A virus; experiment: Antiviral activity against influenza A virus A/WSN/1933 H1N1 infected in MDCK cells assessed as reduction of infectious viral titer at 0.4 to 10 uM incubated for 1 hr measured after 3 days relative to control; format: functional; design: scale not given: the % may be the effect or the level left
[17] = tested on: Influenza A virus; experiment: Antiviral activity against influenza A virus A/WSN/1933 H1N1 infected in MDCK cells assessed as reduction of infectious viral titer at 500 nM incubated for 1 hr under laminar flow hood light before infection measured after 3 days in presence of 10 fold excess zanamivir; format: functional, organism-based
[18] = tested on: Influenza A virus; experiment: Antiviral activity against influenza A virus A/WSN/1933 H1N1 infected in MDCK cells assessed as reduction of infectious viral titer at 100 nM incubated for 1 hr under laminar flow hood light before infection measured after 3 days in presence of 10 fold excess zanamivir; format: functional, organism-based
[19] = tested on: Influenza A virus; experiment: Antiviral activity against influenza A virus A/WSN/1933 H1N1 infected in MDCK cells assessed as reduction of infectious viral titer at 200 nM incubated for 1 hr measured after 3 days; format: functional; design: scale not given: the % may be the effect or the level left
[20] = tested on: Influenza A virus; experiment: Antiviral activity against influenza A virus A/WSN/1933 H1N1 infected in MDCK cells assessed as reduction of infectious viral titer at 40 nM incubated for 1 hr measured after 3 days relative to control; format: functional; design: scale not given: the % may be the effect or the level left
[21] = tested on: Influenza A virus; experiment: Antiviral activity against influenza A virus A/WSN/1933 H1N1 infected in MDCK cells assessed as reduction of infectious viral titer incubated for 1 hr measured after 3 days; format: functional, organism-based

T1 sequence (B4URF0 whole entry): as the sequence (B4URF0 as listed by the source) above

SMILES | IC50 [2] | Activity [3] | Activity [4] | EC50 [5] | Activity [6] | Activity [7] | Activity [8] | Activity [9] | other results
CC(=O)N[C@H]1[C@H]([C@H](OC(=O)NCc2cn(CCOCCOCCOCCNC(=O)COc3ccc(-c4c5nc(c(-c6ccc(OCC(=O)NCCOCCOCCOCCn7cc(CNC(=O)O[C@@H]([C@@H]8OC(C(=O)O)=C[C@H](N=C(N)N)[C@H]8NC(C)=O)[C@H](O)CO)nn7)cc6)c6ccc([nH]6)c(-c6ccc(OCC(=O)NCCOCCOCCOCCn7cc(CNC(=O)O[C@@H]([C@@H]8OC(C(=O)O)=C[C@H](N=C(N)N)[C@H]8NC(C)=O)[C@H](O)CO)nn7)cc6)c6nc(c(-c7ccc(OCC(=O)NCCOCCOCCOCCn8cc(CNC(=O)O[C@@H]([C@@H]9OC(C(=O)O)=C[C@H](N=C(N)N)[C@H]9NC(C)=O)[C@H](O)CO)nn8)cc7)c7ccc4[nH]7)C=C6)C=C5)cc3)nn2)[C@H](O)CO)OC(C(=O)O)=C[C@@H]1N=C(N)N | 8.5 nM |  |  |  |  |  |  |  | IC50 [1]: 16 nM
Oc1ccc(-c2c3nc(c(-c4ccc(O)cc4)c4ccc([nH]4)c(-c4ccc(O)cc4)c4nc(c(-c5ccc(O)cc5)c5ccc2[nH]5)C=C4)C=C3)cc1 |  | inactive | inactive |  |  |  |  |  | 
CC(=O)N[C@H]1[C@H]([C@H](OC(=O)NCc2cn(CCOCCOCCOCCNC(=O)COc3ccc(-c4c5nc(c(-c6ccc(OCC(=O)NCCOCCOCCOCCn7cc(CNC(=O)O[C@@H]([C@@H]8OC(C(=O)O)=C[C@H](NC(=N)N)[C@H]8NC(C)=O)[C@H](O)CO)nn7)cc6)c6ccc([nH]6)c(-c6ccc(OCC(=O)NCCOCCOCCOCCn7cc(CNC(=O)O[C@@H]([C@@H]8OC(C(=O)O)=C[C@H](NC(=N)N)[C@H]8NC(C)=O)[C@H](O)CO)nn7)cc6)c6nc(c(-c7ccc(OCC(=O)NCCOCCOCCOCCn8cc(CNC(=O)O[C@@H]([C@@H]9OC(C(=O)O)=C[C@H](NC(=N)N)[C@H]9NC(C)=O)[C@H](O)CO)nn8)cc7)c7ccc4[nH]7)C=C6)C=C5)cc3)nn2)[C@H](O)CO)OC(C(=O)O)=C[C@@H]1NC(=N)N |  |  |  | 0.5 nM | Active | inactive | Active | inactive | 
CC(=O)N[C@H]1[C@H]([C@H](OC(=O)NCc2cn(CCOCCOCCOCCOCCNC(=O)COc3ccc(-c4c5nc(c(-c6ccc(OCC(=O)NCCOCCOCCOCCOCCn7cc(CNC(=O)O[C@@H]([C@@H]8OC(C(=O)O)=C[C@H](N=C(N)N)[C@H]8NC(C)=O)[C@H](O)CO)nn7)cc6)c6ccc([nH]6)c(-c6ccc(OCC(=O)NCCOCCOCCOCCOCCn7cc(CNC(=O)O[C@@H]([C@@H]8OC(C(=O)O)=C[C@H](N=C(N)N)[C@H]8NC(C)=O)[C@@H](O)CO)nn7)cc6)c6nc(c(-c7ccc(OCC(=O)NCCOCCOCCOCCOCCn8cc(CNC(=O)O[C@@H]([C@@H]9OC(C(=O)O)=C[C@H](N=C(N)N)[C@H]9NC(C)=O)[C@H](O)CO)nn8)cc7)c7ccc4[nH]7)C=C6)C=C5)cc3)nn2)[C@H](O)CO)OC(C(=O)O)=C[C@@H]1N=C(N)N | 3.7 nM |  |  |  |  |  |  |  | IC50 [1]: 7.6 nM
CC(=O)N[C@H]1[C@H]([C@H](OC(=O)NCc2cn(CCOCOc3ccc(-c4c5nc(c(-c6ccc(OCOCCn7cc(CNC(=O)O[C@@H]([C@@H]8OC(C(=O)O)=C[C@H](N=C(N)N)[C@H]8NC(C)=O)[C@H](O)CO)nn7)cc6)c6ccc([nH]6)c(-c6ccc(OCOCCn7cc(CNC(=O)O[C@@H]([C@@H]8OC(C(=O)O)=C[C@H](N=C(N)N)[C@H]8NC(C)=O)[C@H](O)CO)nn7)cc6)c6nc(c(-c7ccc(OCOCCn8cc(CNC(=O)O[C@@H]([C@@H]9OC(C(=O)O)=C[C@H](N=C(N)N)[C@H]9NC(C)=O)[C@H](O)CO)nn8)cc7)c7ccc4[nH]7)C=C6)C=C5)cc3)nn2)[C@H](O)CO)OC(C(=O)O)=C[C@@H]1N=C(N)N | 11 nM |  |  |  |  |  |  |  | 
CC(=O)N[C@H]1[C@H]([C@H](OC(=O)NCc2cn(CCOCOc3ccc(-c4c5nc(c(-c6ccc(OCOCCn7cc(CNC(=O)O[C@@H]([C@@H]8OC(C(=O)O)=C[C@H](NC(=N)N)[C@H]8NC(C)=O)[C@H](O)CO)nn7)cc6)c6ccc([nH]6)c(-c6ccc(OCOCCn7cc(CNC(=O)O[C@@H]([C@@H]8OC(C(=O)O)=C[C@H](NC(=N)N)[C@H]8NC(C)=O)[C@H](O)CO)nn7)cc6)c6nc(c(-c7ccc(OCOCCn8cc(CNC(=O)O[C@@H]([C@@H]9OC(C(=O)O)=C[C@H](NC(=N)N)[C@H]9NC(C)=O)[C@H](O)CO)nn8)cc7)c7ccc4[nH]7)C=C6)C=C5)cc3)nn2)[C@H](O)CO)OC(C(=O)O)=C[C@@H]1NC(=N)N |  |  |  | 2 nM | Active | inactive | Active | inactive | Ratio EC50 [10]: 55; inhibition [11]: 24%; inhibition [12]: 51%; EC50 [13]: 11 nM; inhibition [14]: 51%; inhibition [15]: 24%
CC(=O)N[C@H]1[C@H]([C@H](O)[C@H](O)CO)OC(C(=O)O)=C[C@@H]1NC(=N)N [ZANAMIVIR] |  | inactive | inactive | 11 nM |  |  |  |  | EC50 [13]: 613 nM
CC(=O)N[C@H]1[C@H]([C@H](OC(=O)NCc2cn(CCOCCOCCOCCOCCNC(=O)COc3ccc(-c4c5nc(c(-c6ccc(OCC(=O)NCCOCCOCCOCCOCCn7cc(CNC(=O)O[C@@H]([C@@H]8OC(C(=O)O)=C[C@H](NC(=N)N)[C@H]8NC(C)=O)[C@H](O)CO)nn7)cc6)c6ccc([nH]6)c(-c6ccc(OCC(=O)NCCOCCOCCOCCOCCn7cc(CNC(=O)O[C@@H]([C@@H]8OC(C(=O)O)=C[C@H](NC(=N)N)[C@H]8NC(C)=O)[C@@H](O)CO)nn7)cc6)c6nc(c(-c7ccc(OCC(=O)NCCOCCOCCOCCOCCn8cc(CNC(=O)O[C@@H]([C@@H]9OC(C(=O)O)=C[C@H](NC(=N)N)[C@H]9NC(C)=O)[C@H](O)CO)nn8)cc7)c7ccc4[nH]7)C=C6)C=C5)cc3)nn2)[C@H](O)CO)OC(C(=O)O)=C[C@@H]1NC(=N)N |  | Active | Active | 0.1 nM | Active | inactive | Active | inactive | Activity [16]: 60%; Activity [17]: inactive; Activity [18]: inactive; Activity [19]: >95%; Activity [20]: <20%; Activity [21]: Dose-dependent effect

From ChEMBL document CHEMBL1158456, “Synergistic effect of zanamivir-porphyrin conjugates on inhibition of neuraminidase and inactivation of influenza virus” (J Med Chem, 2009)
